Experiments:
[1] = tested on: wheat; assay: Test B pre/postemergence wheat; format: in vivo, Triticum aestivum
Outline: (§1)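 Test chemicals in a non-phytotoxic solvent mixture with surfactant were sprayed preemergence onto planted seeds and postemergence onto plants 2 to 18 cm tall (1- to 4-leaf stage). After twelve to sixteen days in a greenhouse, injury was visually rated against untreated controls from 0 (no effect) to 10 (complete control).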

[2] = tested on: crabgrass; assay: Test B pre/postemergence crabgrass; format: in vivo, Digitaria sanguinalis
Outline: as §1

[3] = tested on: wild oat; assay: Test B pre/postemergence wild oat; format: in vivo, Avena fatua
Outline: as §1

[4] = tested on: rice; assay: Test B flood test rice; format: in vivo, Oryza sativa
Outline: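 Flood test on plants grown to the 2-leaf stage; treated plants kept in greenhouse twelve to sixteen days, then visually rated against controls on a 0 (no effect) to 10 (complete control) scale.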

[5] = Preemergence, Rate 62 g/ha, scale of 0 to 10 where 0 is no effect and 10 is complete control
[6] = Preemergence, Rate 250 g/ha, scale of 0 to 10 where 0 is no effect and 10 is complete control
[7] = Preemergence, Rate 500 g/ha, scale of 0 to 10 where 0 is no effect and 10 is complete control
[8] = Rate 62 g/ha, Postemergence, scale 0 to 10 (0 no effect, 10 complete control)
[9] = Rate 125 g/ha, Postemergence, scale of 0 to 10 where 0 is no effect and 10 is complete control
[10] = Rate 250 g/ha, Postemergence, scale of 0 to 10 where 0 is no effect and 10 is complete control
[11] = Rate 500 g/ha, Postemergence, scale 0 to 10, 0 no effect, 10 complete control
[12] = Rate 125 g/ha, Pre-emergence, flood test species, scale 0 to 10 where 0 is no effect and 10 is complete control
[13] = Rate 250 g/ha, Pre-emergence, flood-test species, scale 0 to 10, 0 is no effect, 10 is complete control
[14] = Rate 500 g/ha, Pre-emergence, flood test species, scale 0 to 10 (0 no effect, 10 complete control)
[15] = Postemergence, Rate 62 g/ha, scale 0 to 10, 0 is no effect, 10 is complete control
[16] = Postemergence, Rate 125 g/ha, scale of 0 to 10 where 0 is no effect and 10 is complete control
[17] = Preemergence, Rate 125 g/ha, scale of 0 to 10 where 0 is no effect and 10 is complete control
[18] = Preemergence, Rate 250 g/ha, scale 0 to 10 (0 no effect, 10 complete control)
[19] = Rate 500 g/ha, Postemergence, scale 0 to 10, 0 is no effect, 10 is complete control
[20] = Postemergence, Rate 1000 g/ha, scale 0 to 10 (0 no effect, 10 complete control)
[21] = Rate 125 g/ha, Preemergence, scale of 0 to 10 where 0 is no effect and 10 is complete control
[22] = Rate 1000 g/ha, Preemergence, scale 0 to 10 (0 no effect, 10 complete control)
[23] = Postemergence, Rate 125 g/ha, scale 0 to 10, 0 is no effect, 10 is complete control
[24] = Preemergence, Rate 62 g/ha, scale 0 to 10 (0 no effect, 10 complete control)
[25] = Rate 62 g/ha, Postemergence, scale of 0 to 10 where 0 is no effect and 10 is complete control

Structure (SMILES): C=CCn1c(=O)on(C(=O)N(c2ccc(Cl)cc2)C(C)C2CC2)c1=O (stereo not drawn) [Compound 325]
- Wheat plant response rating [1, 5]: 0
- Wheat plant response rating (0 to 10 scale) ([1]; Preemergence, Rate 125 g/ha): 0
- Wheat plant response rating [1, 6]: 0
- Wheat plant response rating [1, 7]: 0
- Wheat plant response rating [1, 8]: 0
- Wheat plant response rating [1, 9]: 0
- Plant response rating, Wheat [1, 10]: 2
- Plant response rating, Wheat [1, 11]: 5
- Crabgrass plant response rating [2, 5]: 0
- Crabgrass plant response rating (0 to 10 scale) ([2]; Preemergence, Rate 125 g/ha): 0
- Crabgrass plant response rating [2, 6]: 1
- Crabgrass plant response rating [2, 7]: 2
- Crabgrass plant response rating [2, 8]: 0
- Crabgrass plant response rating [2, 9]: 0
- Plant response rating, Crabgrass [2, 10]: 0
- Plant response rating, Crabgrass [2, 11]: 0
- Wild oats plant response rating [3, 5]: 0
- Wild oats plant response rating (0 to 10 scale) ([3]; Preemergence, Rate 125 g/ha): 0
- Wild oats plant response rating [3, 6]: 0
- Wild oats plant response rating [3, 7]: 2
- Wild oats plant response rating [3, 8]: 0
- Wild oats plant response rating [3, 9]: 0
- Plant response rating, Wild oats [3, 10]: 0
- Plant response rating, Wild oats [3, 11]: 4
- Rice plant response rating ([4]; Rate 62 g/ha, headed Pre-emergence (flood test species), scale 0 to 10 (0 no effect, 10 complete control)): 0
- Rice plant response rating [4, 12]: 0
- Rice plant response rating [4, 13]: 0
- Rice plant response rating [4, 14]: 0

Structure (SMILES): CC[C@H](C)n1c(=O)on(C(=O)N(c2ccc(F)cc2F)C(C)C)c1=O [Compound 666]
- Plant response rating, Wheat [1, 15]: 0
- Wheat plant response rating [1, 16]: 0
- Wheat plant response rating [1, 5]: 0
- Wheat plant response rating [1, 17]: 3
- Plant response rating, Wheat [1, 18]: 4
- Plant response rating, Wheat [1, 7]: 7
- Wheat plant response rating [1, 19]: 3
- Plant response rating, Crabgrass [2, 15]: 3
- Crabgrass plant response rating [2, 16]: 9
- Crabgrass plant response rating ([2]; Postemergence, Rate 250 g/ha, scale of 0 to 10, 0 is no effect, 10 is complete control): 9
- Crabgrass plant response rating [2, 5]: 7
- Crabgrass plant response rating [2, 17]: 8
- Plant response rating, Crabgrass [2, 18]: 9
- Plant response rating, Crabgrass [2, 7]: 10
- Crabgrass plant response rating [2, 19]: 9
- Plant response rating, Wild oats [3, 15]: 0
- Wild oats plant response rating [3, 16]: 0
- Wild oats plant response rating [3, 5]: 5
- Wild oats plant response rating [3, 17]: 6
- Plant response rating, Wild oats [3, 18]: 9
- Plant response rating, Wild oats [3, 7]: 9
- Wild oats plant response rating [3, 19]: 3
- Plant response rating, Rice (0 to 10 scale, 0 is no effect, 10 is complete control) ([4]; Rate 62 g/ha, flood test species, Pre-emergence, visual evaluation after twelve to sixteen days): 0
- Rice plant response rating (0 to 10 scale, 0 is no effect, 10 is complete control) ([4]; Rate 125 g/ha, under heading Pre-emergence, flood test species, visual evaluation after twelve to sixteen days): 0
- Rice plant response rating ([4]; Rate 250 g/ha, Pre-emergence (flood test species), scale 0 to 10, 0 is no effect, 10 is complete control): 0
- Rice plant response rating ([4]; Rate 500 g/ha, Pre-emergence section of Table B, 0 to 10 scale (0 no effect, 10 complete control)): 0

Structure (SMILES): CCOC(=O)C(C)N(C(=O)n1oc(=O)n(C2CCCCC2)c1=O)c1ccc(F)cc1 (stereo not drawn) [Compound 280]
- Wheat plant response rating [1, 20]: 0
- Wheat plant response rating [1, 6]: 0
- Plant response rating, Wheat [1, 7]: 0
- Wheat plant response rating [1, 9]: 0
- Wheat plant response rating [1, 21]: 0
- Plant response rating, Wheat [1, 10]: 0
- Wheat plant response rating [1, 11]: 0
- Plant response rating, Wheat [1, 22]: 0
- Crabgrass plant response rating [2, 20]: 0
- Crabgrass plant response rating [2, 6]: 0
- Plant response rating, Crabgrass [2, 7]: 0
- Crabgrass plant response rating [2, 9]: 0
- Crabgrass plant response rating [2, 21]: 0
- Plant response rating, Crabgrass [2, 10]: 0
- Crabgrass plant response rating [2, 11]: 0
- Plant response rating, Crabgrass [2, 22]: 0
- Wild oats plant response rating [3, 20]: 0
- Wild oats plant response rating [3, 6]: 0
- Plant response rating, Wild oats [3, 7]: 0
- Wild oats plant response rating [3, 9]: 0
- Plant response rating, Wild oats [3, 10]: 0
- Wild oats plant response rating [3, 11]: 0
- Plant response rating, Wild oats [3, 22]: 0
- Rice plant response rating ([4]; Pre-emergence, Rate 1000 g/ha, scale 0 to 10 (0 no effect, 10 complete control)): 0
- Rice plant response rating [4, 12]: 0
- Rice plant response rating [4, 13]: 0
- Rice plant response rating [4, 14]: 0

Structure (SMILES): Cc1c(-n2c(=O)on(C(=O)N(c3ccccc3)C(C)C)c2=O)ccc2ccccc12 [Compound 344]
- Plant response rating, Wheat [1, 23]: 0
- Plant response rating, Wheat [1, 24]: 0
- Wheat plant response rating (0 to 10 scale) ([1]; Preemergence, Rate 125 g/ha): 0
- Wheat plant response rating [1, 6]: 0
- Wheat plant response rating [1, 7]: 0
- Wheat plant response rating [1, 25]: 0
- Plant response rating, Wheat [1, 11]: 0
- Plant response rating, Crabgrass [2, 23]: 0
- Plant response rating, Crabgrass [2, 24]: 0
- Crabgrass plant response rating (0 to 10 scale) ([2]; Preemergence, Rate 125 g/ha): 0
- Crabgrass plant response rating [2, 6]: 0
- Crabgrass plant response rating [2, 7]: 1
- Crabgrass plant response rating [2, 25]: 0
- Plant response rating, Crabgrass [2, 11]: 0
- Plant response rating, Wild oats [3, 23]: 0
- Plant response rating, Wild oats [3, 24]: 0
- Wild oats plant response rating (0 to 10 scale) ([3]; Preemergence, Rate 125 g/ha): 0
- Wild oats plant response rating [3, 6]: 0
- Wild oats plant response rating [3, 7]: 0
- Wild oats plant response rating [3, 25]: 0
- Plant response rating, Wild oats [3, 11]: 0
- Plant response rating, Rice ([4]; Postemergence (flood test), Rate 125 g/ha, scale 0 to 10, 0 is no effect, 10 is complete control): 0
- Rice plant response rating ([4]; Rate 62 g/ha, Postemergence (flood test species), scale of 0 to 10 where 0 is no effect and 10 is complete control): 0
- Plant response rating, Rice ([4]; Rate 500 g/ha, listed under Postemergence (flood test species), scale 0 to 10, 0 no effect, 10 complete control): 0

Reference: patent US6737383B1, “Herbicidal oxadiazolidines” (priority 1999, dated 2004)
